Experimental data published in patent US6545000B1, “[1,2,4]triazolo[1,5-c]pyrimidine derivatives” (Kyowa Hakko Kogyo Co., Ltd., priority 1998, dated 2003).

How the values were obtained:
[1] = test system: reserpine-induced catalepsy; experiment: Activity on reserpine-induced catalepsy; assay type: in vivo, mouse; conditions: oral; for Remission ratio (%): percentage reduction of total score vs control group; for Total score: total catalepsy score of 10 mice (maximum 50 points), reserpine 5 mg/kg s.c., 1 hour after administration
Procedure: This test was carried out using 10 animals per group of male ddY mice of 5 week age (22 to 24 g in body weight, Japan SLC). […] Reserpine (5 mg/kg: apoplon, Daiichi Pharmaceutical Co., Ltd.; diluted with distilled water) was subcutaneously administered, and catalepsy-inducing activity was observed from 18 hours after the administration. […] Each test compound was suspended in distilled water for injection containing 0.5% MC (manufactured by Otsuka Pharmaceutical Co., Ltd.) The suspension containing each of the test compounds or a solution containing no test compound (distilled water for injection containing 0.5% MC (manufactured by Otsuka Pharmaceutical Co., Ltd.); control) was orally administered (0.1 mL per 10 g mouse body weight) and, one hour after the administration of test compound, only forelimbs or only hindlimbs of each animal were laid on a stand having a size of 4.5 cm in height and 1.0 cm in width, to measure catalepsy symptoms.
(§1) The effect was judged by total catalepsy scores of 10 animals in one group (the maximum is 50 points). When the total score was 40 points or less, the activity of the test compound was judged positive. The number of animals showing remission of catalepsy was expressed by the number of cases in which the catalepsy score was 4 points or less in 10 cases. The catalepsy remission ratio was expressed as the percentage reduction of the total score in the test compound-administered group to the total score in the control group.

[2] = test system: MPTP-treated common marmoset; experiment: Parkinson's disease model (common marmoset treated with MPTP); assay type: in vivo; conditions: motor disability score (0-17 points), 4 animals
Procedure: This test was carried out using 4 animals per group of female and male common marmosets of 2 to 3 year age (300 to 375 g in body weight, CLEA Japan). MPTP (manufactured by RBI) was dissolved in physiological saline for injection (manufactured by Otsuka Pharmaceutical Co., Ltd.) and administered to common marmoset once a day for 5 days by subcutaneous injection in a dose of 2.0 mg/kg. Six weeks or more after the administration, animals showing chronic symptoms of Parkinson's disease were used in the test. Each test compound was used by suspending it in 0.3% Tween 80 and 10% sucrose solution. One hour before the administration of the test compound, the animals to be tested were put into an observation cage (equipped with a spontaneous locomotor count measuring apparatus) to adapt them to the environment. Pre-motor disability before administration of the test compound was scored, and was compared with the motor disability score after administration of the test compound. Symptoms of Parkinson's disease were observed from a one way see through window at 30 minutes' interval for 8 hours to score their motor disability. The spontaneous locomotor count was measured at 30 minutes' interval for 12 hours by a computer-controlled automatic measuring apparatus. […]

[3] = test system: CGS 21680-induced catalepsy; experiment: Activity on CGS 21680-induced catalepsy; assay type: in vivo, mouse; conditions: 10 mg/kg oral; for inhibition in vivo at 10 mg/kg: Mus musculus, 1 h, percentage reduction of total score vs control group, read-out: Remission ratio (%); for Total score: total catalepsy score of 10 mice (maximum 50 points), 1 hour after administration
Procedure: This test was carried out using 10 animals per group of male ddY mice of 5 week age (22 to 25 g in body weight, Japan SLC). […] One hour after the administration of the test compound, only forelimbs or only hindlimbs of each animal were laid on a vertically arranged stand made of acryl, having a size of 4.5 cm in height and 1.0 cm in width, to measure catalepsy symptoms. All of the test compounds were administered orally in a dose of 10 mg/kg.
as §1, with “(the maximum score is 50” for “(the maximum is 50”, “points). When total score” for “points). When the total score”, “of the compounds was judged” for “of the test compound was judged”

Rat A2A receptor = target: T1, Rat A2A receptor (Rattus norvegicus, UniProt P30543); experiment: Adenosine A2A receptor binding test (3H-CGS 21680 binding); conditions: rat corpus striatum
T1 construct: from tissue; host or cells: rat corpus striatum membrane preparation
T1 sequence (P30543 whole entry): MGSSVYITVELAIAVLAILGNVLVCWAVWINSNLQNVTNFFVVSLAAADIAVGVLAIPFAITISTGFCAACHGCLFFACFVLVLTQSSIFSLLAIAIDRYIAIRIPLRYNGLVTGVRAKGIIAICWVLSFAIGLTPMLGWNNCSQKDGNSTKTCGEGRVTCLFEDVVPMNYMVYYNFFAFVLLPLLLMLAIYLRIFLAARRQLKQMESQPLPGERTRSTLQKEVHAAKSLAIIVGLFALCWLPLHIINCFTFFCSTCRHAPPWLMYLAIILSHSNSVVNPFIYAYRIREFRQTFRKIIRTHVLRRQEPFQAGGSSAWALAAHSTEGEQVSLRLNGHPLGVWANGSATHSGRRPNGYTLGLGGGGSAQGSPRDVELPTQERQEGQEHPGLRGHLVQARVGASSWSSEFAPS
Procedure: The final precipitate was suspended in 50 mmol/L Tris-HCl buffer (containing 10 mmol/L magnesium chloride and 0.02 unit/mg tissue of adenosine deaminase (manufactured by Sigma Co.)) by adding the buffer to the final precipitate so as to give a tissue concentration of 5 mg (wet weight)/mL.
Inhibition ratio (%)={1−(amount of the binding in the presence of the test compound−amount of the non-specific binding)/(amount of the total binding−amount of the non-specific binding)}×100

[4] = test system: haloperidol-induced catalepsy; experiment: Activity on haloperidol-induced catalepsy; assay type: in vivo, mouse; conditions: 10 mg/kg oral; for Number of animals showing remission: catalepsy score 4 points or less, out of 10 mice; for Remission ratio (%): percentage reduction of total score vs control group; for Total score: total catalepsy score of 10 mice (maximum 50 points), haloperidol 1.0 mg/kg i.p.
Procedure: Parkinson's disease is a disease based on the degeneration and cell death of the nigrostriatal dopaminergic neuron. When haloperidol (dopamine D2 antagonist) is administered, catalepsy is induced by the block of postsynaptic D2 receptor. This haloperidol-induced catalepsy is known as a classic model in which symptoms of Parkinson's disease are produced by drug administration (European Journal of Pharmacology, 182: 327 (1990) and U.S. Pat. No. 3,991,207).
This test was carried out using 10 animals per group of male ddY mice of 5 week age (22 to 24 g in body weight, Japan SLC). Haloperidol (manufactured by Janssen) was suspended in 0.5% MC and administered intraperitoneally into mice at a dose of 1.0 mg/kg. Each test compound was suspended in distilled water for injection containing 0.5% MC (manufactured by Otsuka Pharmaceutical Co., Ltd.) (10 mg/kg). Also, as a control drug, 100 mg/kg of L-DOPA and 25 mg/kg of benserazide were used as a solution by dissolving them into distilled water for injection containing 0.5% MC (manufactured by Otsuka Pharmaceutical Co., Ltd.) One hour after the intraperitoneal injection of haloperidol, the suspension containing each of the test compounds or the solution containing the control drug was orally administered (0.1 mL per 10 g mouse body weight) and, one hour after the administration of the test compound or the control drug, only forelimbs or only hindlimbs of each animal were laid on a stand having a size of 4.5 cm in height and 1.0 cm in width, to measure catalepsy symptoms. The catalepsy score was evaluated by the judging criteria shown in the above-described Table 3.
as §1, with “(the maximum score is 50” for “(the maximum is 50”, “the test compounds was judged” for “the test compound was judged”

ddY male mice = experiment: Forced swimming method (measurement of immobility time); assay type: in vivo, mouse; conditions: oral, one hour before the test; 4 minutes (240 seconds) measurement; 10 mice
Procedure: Ten animals per group of ddY male mice (21 to 26 g in body weight, Japan SLC) were used as the test animal. During the preliminary feeding period, they were allowed to have feed and water freely in an animal room of a room temperature of 23±1° C. and a humidity of 55±5%. Animals showing abnormal reactions in terms of spontaneous activity, myotonia, eyesight or the like were excluded beforehand. The test compound was suspended in a 0.3% Tween 80 solution and orally administered one hour before the test. In the negative control group, 10 mL/kg of a 0.3% Tween 80 solution alone was orally administered. Measurement of immobility time was carried out in accordance with the method of Porsolt (Arch. int Pharmacodyn., 229: 327-336 (1977)). That is, a cylindrical transparent acrylic water tank (10 cm in diameter and 25 cm in height) was filled with 9 cm in depth of water having a temperature of 23±1° C., and mice were forced to swim for 6 minutes. When mice are put into water, they immediately start to swim trying to escape from the tank, but the motion gradually decreases 1 to 2 minutes thereafter. […] In order to reduce effects of daily rhythm, the test was carried out by using 5 of the 10 animals per group in the morning, and the remaining 5 animals in the afternoon. […]

SMILES | Remission ratio (%) [1] [%] | Total score [1] | Average score at maximum improvement after administration ([2]; after administration) | Average score before administration ([2]; before administration of the test compound) | inhibition in vivo at 10 mg/kg [3] [%] | Total score [3] | Rat A2A receptor inhibition ratio (%) (Rat A2A receptor; 10^−6 mol/L test compound) | Rat A2A receptor inhibition ratio (%) (Rat A2A receptor; 10^−7 mol/L test compound) | Number of animals showing remission [4] | Remission ratio (%) [4] [%] | Total score [4] | Immobility time (second) (ddY male mice) | melting point [°C]
CC(C)(O)CN1CCN(c2cc3nc(-c4ccco4)nn3c(N)n2)CC1 [Compound 1, 5-Amino-2-(2-furyl)-7-(4-(2-hydroxy-2-methylpropyl)piperazinyl)[1,2,4]triazolo[1,5-c]pyrimidine] | 72 | 14 | 4.75 ± 0.48 (p < 0.0256) | 12.75 ± 0.25 | 100 | 0 | 81 | 42 | 10 | 100 | 0 |  | 
Cc1cc(CN2CCN(c3cc4nc(-c5ccco5)nn4c(N)n3)CC2)no1 [Compound 21, 5-Amino-2-(2-furyl)-7-(4-(5-methylisoxazol-3-ylmethyl)piperazinyl)[1,2,4]triazolo[1,5-c]pyrimidine] | 66 | 17 |  |  | 100 | 0 | 90 | 65 | 10 | 100 | 0 | 7.6 ± 3.2 (p < 0.01) second | 
Cc1onc(-c2ccccc2)c1CN1CCN(c2cc3nc(-c4ccco4)nn3c(N)n2)CC1 [Compound 25, 5-Amino-2-(2-furyl)-7-(4-(5-methyl-3-phenylisoxazol-4-ylmethyl)piperazinyl)[1,2,4]triazolo[1,5-c]pyrimidine] |  |  |  |  |  |  | 95 |  |  |  |  |  | 244 to 246
Nc1nc(N2CCN(Cc3ccc4c(c3)OCC(=O)N4)CC2)cc2nc(-c3ccco3)nn12 [Compound 26, 5-Amino-2-(2-furyl)-7-(4-(3-oxo-3,4-dihydro-2H-benzo[1,4]oxazin-7-ylmethyl)piperazinyl)[1,2,4]triazolo[1,5-c]pyrimidine] |  |  |  |  |  |  | 94 |  |  |  |  |  | 287 to 288
